Literature values, collected in patent US20130078290A1, “Gastroretentive Dosage Forms Of GABA Analogs” (Rubicon Research Private Limited, priority 2010, published 2013).

Assays:
[1] = for Elimination half-life: in vivo
[2] = in water and in acidic and basic aqueous solutions

SMILES	Oral bioavailability ([1]; dose in range of 300-400 mg)	Elimination half-life [1]	Solubility [2]
NCC1(CC(=O)O)CCCCC1 [gabapentin, 1-(Aminomethyl)cyclohexaneacetic acid]	approximately 60%	5 to 7 h	freely soluble
CC(C)CC(CN)CC(=O)O (centres unmarked) [pregabalin, 5-methyl-3-aminomethyl-hexanoic acid]		about 6.3 hours	freely soluble
